The Ki is the dissociation constant of the complex between target and ligand, obtained from inhibition or displacement. The IC50 is the concentration that gives 50% inhibition. Usually inhibition stands for the change of the read-out against control, counted positive when it falls.

For one assay, the target named is ERK2 (Homo sapiens, UniProt P28482). Put plainly: ERK2 inhibition, spectrophotometric coupled-enzyme assay. Type of assay: biochemical. The settings on record: activated ERK2 10 nM, 65 μM ATP, 30° C., pH 7.5; read-out: ERK2 Inhibitory Activity (Ki class).
The subject of assay [1] is Colon cancer cells (HT-29 cell line). Put plainly: ERK inhibition cell proliferation assay (3H-thymidine uptake). It counts as cell-based. The settings on record: Homo sapiens, 3 days. On the procedure:
Compounds were assayed for the inhibition of ERK2 by a cell proliferation assay. In this assay, a complete media was prepared by adding 10% fetal bovine serum and penicillin/streptomycin solution to RPMI 1640 medium (JRH Biosciences). Colon cancer cells (HT-29 cell line) were added to each of 84 wells of a 96 well plate at a seeding density of 10,000 cells/well/150 μL. The cells were allowed to attach to the plate by incubating at 37° C. for 2 hours. A solution of test compound was prepared in complete media by serial dilution to obtain the following concentrations: 20 μM, 6.7 μM, 2.2 μM, 0.74 μM, 0.25 μM, and 0.08 μM. The test compound solution (50 μL) was added to each of 72 cell-containing wells. To the 12 remaining cell-containing wells, only complete media […] was added to form a control group in order to measure maximal proliferation. To the remaining 12 empty wells, complete media was added to form a vehicle control group in order to measure background. The plates were incubated at 37° C. for 3 days. A stock solution of ^3H-thymidine (1 mCi/mL, New England Nuclear, Boston, Mass.) was diluted to 20 μCi/mL in RPMI medium then 20 μL of this solution was added to each well. The plates were further incubated at 37° C. for 8 hours then harvested and analyzed for ^3H-thymidine uptake using a liquid scintillation counter.

Another assay has as its target KDR (Homo sapiens, UniProt P35968). Briefly: KDR inhibition, standard coupled enzyme assay. Type of assay: biochemical. The settings on record: read-out: percent inhibition of KDR. On the procedure: Compounds were screened for their ability to inhibit KDR using a standard coupled enzyme assay (Fox et al., Protein Sci., (1998) 7, 2249). Assays were carried out in a mixture of 200 mM HEPES 7.5, 10 mM MgCl2, 25 mM NaCl , 1 mM DTT and 1.5% DMSO. Final substrate concentrations in the assay were 300 μM ATP (Sigma Chemicals) and 10 μM poly E4Y (Sigma). Assays were carried out at 37° C. and 30 nM KDR. Final concentrations of the components of the coupled enzyme system were 2.5 mM phosphoenolpyruvate, 200 μM NADH, 30 μg/ML pyruvate kinase and 10 μg/ml lactate dehydrogenase.
An assay stock buffer solution was prepared containing all of the reagents listed above, with the exception of ATP and the test compound of interest. 177 μl of the stock solution was placed in a 96 well plate followed by addition of 3 μl of 2 mM DMSO stock containing the test compound (final compound concentration 30 μM). The plate was preincubated for about 10 minutes at 37° C. and the reaction initiated by addition of 20 μl of ATP (final concentration 300 μM). Rates of reaction were obtained using a Molecular Devices plate reader (Sunnyvale, Calif.) over a 5 minute read time at 37° C.

In another assay the target is T1, Aurora2 (Homo sapiens, UniProt O14965).
T1 sequence (O14965 1-403): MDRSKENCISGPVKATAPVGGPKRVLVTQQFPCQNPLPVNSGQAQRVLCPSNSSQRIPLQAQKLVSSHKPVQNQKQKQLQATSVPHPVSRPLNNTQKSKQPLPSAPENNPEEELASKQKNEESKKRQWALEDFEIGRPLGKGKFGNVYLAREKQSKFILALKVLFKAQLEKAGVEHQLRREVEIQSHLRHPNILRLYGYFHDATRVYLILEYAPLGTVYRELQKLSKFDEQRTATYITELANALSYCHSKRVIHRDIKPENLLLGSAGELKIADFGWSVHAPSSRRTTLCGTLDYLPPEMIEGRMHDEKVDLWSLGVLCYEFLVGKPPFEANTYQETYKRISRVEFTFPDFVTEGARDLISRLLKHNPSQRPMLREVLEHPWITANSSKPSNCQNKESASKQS
Put plainly: Aurora inhibition, standard coupled enzyme assay. Type of assay: biochemical. The settings on record: 40 μM ATP, 30° C.; read-out: Aurora2 Inhibitory Activity (IC50 class). On the procedure:
Compounds were screened in the following manner for their ability to inhibit Aurora using a standard coupled enzyme assay. To an assay stock buffer solution containing 0.1M HEPES 7.5, 10 mM MgCl2, 25 mM NaCl, 2.5 mM phosphoenolpyruvate, 300 μM NADH, 30 μg/mL pyruvate kinase, 10 μg/mL lactate dehydrogenase, 40 μM ATP, and 800 μM peptide (LRRASLG, American Peptide, Sunnyvale, Calif.) was added a 30 μM solution of the compound in DMSO and the resulting mixture incubated at 30° C. for 10 min. The reaction was initiated by the addition of 10 μL of 70 nM Aurora and 1 mM DTT. The rates of reaction were obtained by monitoring absorbance at 340 nm over a 5 minute read time at 30° C. using a BioRad Ultramark plate reader (Hercules, Calif.). The IC50 was determined from the rate data as a function of inhibitor concentration.
The compound numbers correspond to the compound numbers in Table 1.

The next assay has as its system AKT. Briefly: AKT inhibition, standard coupled enzyme assay. It counts as biochemical. On the procedure: Compounds were screened for their ability to inhibit AKT using a standard coupled enzyme assay (Fox et al., Protein Sci., (1998) 7, 2249). Assays were carried out in a mixture of 100 mM HEPES 7.5, 10 mM MgCl2, 25 mM NaCl , 1 mM DTT and 1.5% DMSO. Final substrate concentrations in the assay were 170 μM ATP (Sigma Chemicals) and 200 μM peptide (RPRAATF, American Peptide, Sunnyvale, Calif.). Assays were carried out at 30° C. and 45 nM AKT. Final concentrations of the components of the coupled enzyme system were 2.5 mM phosphoenolpyruvate, 300 μM NADH, 30 μg/ML pyruvate kinase and 10 μg/ml lactate dehydrogenase.
An assay stock buffer solution was prepared containing all of the reagents listed above, with the exception of AKT, DTT, and the test compound of interest. 56 μl of the stock solution was placed in a 384 well plate followed by addition of 1 μl of 2 mM DMSO stock containing the test compound (final compound concentration 30 μM). The plate was preincubated for about 10 minutes at 30° C. and the reaction initiated by addition of 10 μl of enzyme (final concentration 45 nM) and 1 mM DTT. Rates of reaction were obtained using a BioRad Ultramark plate reader (Hercules, Calif.) over a 5 minute read time at 30° C.

Sequence of ERK2 (P28482 whole entry): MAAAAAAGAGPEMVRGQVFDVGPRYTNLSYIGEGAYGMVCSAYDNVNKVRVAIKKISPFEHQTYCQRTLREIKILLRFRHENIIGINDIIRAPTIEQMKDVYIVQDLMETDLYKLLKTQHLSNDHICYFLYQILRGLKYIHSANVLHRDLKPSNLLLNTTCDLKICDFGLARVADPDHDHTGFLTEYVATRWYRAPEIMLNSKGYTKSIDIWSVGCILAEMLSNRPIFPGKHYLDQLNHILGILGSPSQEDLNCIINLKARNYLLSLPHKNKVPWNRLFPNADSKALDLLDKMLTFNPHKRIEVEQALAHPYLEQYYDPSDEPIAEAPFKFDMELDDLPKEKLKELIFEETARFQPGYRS
Sequence of KDR (P35968 20-1356, species assumed): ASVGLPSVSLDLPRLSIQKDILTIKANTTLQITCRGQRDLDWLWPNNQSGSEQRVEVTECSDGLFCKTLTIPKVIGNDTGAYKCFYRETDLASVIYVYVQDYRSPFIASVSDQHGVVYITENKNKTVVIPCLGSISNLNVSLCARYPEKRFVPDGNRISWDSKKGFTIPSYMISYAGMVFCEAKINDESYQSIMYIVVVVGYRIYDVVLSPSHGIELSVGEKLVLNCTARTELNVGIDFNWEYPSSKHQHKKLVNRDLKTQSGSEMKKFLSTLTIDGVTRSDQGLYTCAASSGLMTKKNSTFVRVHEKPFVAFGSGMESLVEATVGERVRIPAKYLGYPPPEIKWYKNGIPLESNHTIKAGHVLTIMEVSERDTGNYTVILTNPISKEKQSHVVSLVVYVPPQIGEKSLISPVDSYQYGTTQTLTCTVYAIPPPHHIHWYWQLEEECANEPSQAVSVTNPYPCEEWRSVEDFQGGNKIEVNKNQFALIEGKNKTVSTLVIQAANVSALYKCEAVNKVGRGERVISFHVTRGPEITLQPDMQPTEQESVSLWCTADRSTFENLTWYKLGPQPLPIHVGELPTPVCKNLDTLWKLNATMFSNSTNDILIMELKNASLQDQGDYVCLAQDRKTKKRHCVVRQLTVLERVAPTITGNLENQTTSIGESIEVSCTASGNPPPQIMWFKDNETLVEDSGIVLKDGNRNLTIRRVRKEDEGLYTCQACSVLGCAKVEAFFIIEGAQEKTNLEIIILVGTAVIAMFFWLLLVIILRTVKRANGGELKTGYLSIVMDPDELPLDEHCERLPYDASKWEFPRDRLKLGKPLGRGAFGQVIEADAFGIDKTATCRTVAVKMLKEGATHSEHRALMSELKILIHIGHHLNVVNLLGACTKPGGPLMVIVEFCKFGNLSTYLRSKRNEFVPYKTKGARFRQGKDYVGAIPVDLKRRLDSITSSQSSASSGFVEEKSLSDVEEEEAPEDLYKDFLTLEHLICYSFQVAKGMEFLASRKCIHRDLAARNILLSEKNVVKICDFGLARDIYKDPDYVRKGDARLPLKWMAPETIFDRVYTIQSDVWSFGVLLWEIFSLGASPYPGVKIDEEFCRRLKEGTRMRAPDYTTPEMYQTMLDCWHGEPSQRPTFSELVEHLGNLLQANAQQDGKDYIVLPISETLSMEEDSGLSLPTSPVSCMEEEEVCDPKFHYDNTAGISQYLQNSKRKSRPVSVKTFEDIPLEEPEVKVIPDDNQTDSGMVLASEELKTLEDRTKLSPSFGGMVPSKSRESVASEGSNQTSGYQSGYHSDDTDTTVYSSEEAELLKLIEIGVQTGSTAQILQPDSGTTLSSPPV

Regarding `O=C(NC(CO)c1ccccc1)c1cc(-c2[nH]ncc2-c2cccc(Br)c2)c[nH]1` (stereo not drawn) [II-45], the Ki at ERK2 is less than 1 µM. The IC50 in assay [1] is less than 10 µM.

For the compound `O=C(NCc1ccncc1)c1cc(-c2n[nH]cc2-c2cc(Cl)cc(Cl)c2)c[nH]1` [II-48], at ERK2, the Ki was less than 1 µM. The figures for the IC50 (in assay [1]; at Aurora2) were less than 10 µM and less than 5 µM, respectively. In addition, the inhibition at 2 µM on KDR is greater than 40%.

For `O=C(NOCc1ccccc1)c1cc(-c2[nH]ncc2-c2ccc(F)c(F)c2)c[nH]1` [II-85], on ERK2, the Ki is less than 1 µM. The IC50 at Aurora2 is 5 to 10 µM.

On to `O=C(NCc1ccncc1)c1cc(-c2[nH]ncc2-c2ccc(Cl)c(Cl)c2)c[nH]1` [II-61], for which the Ki on ERK2 is less than 1 µM. The IC50 at Aurora2 is less than 5 µM.

Regarding `O=C(NCCc1cnc[nH]1)c1cc(-c2[nH]ncc2-c2cccc(Cl)c2)c[nH]1` [II-142], the Ki at ERK2 fell in the range of 1 to 5 µM. Moreover, the IC50 on Aurora2 is less than 5 µM.

As to `O=C(NCc1ccncc1)c1cc(-c2[nH]ncc2-c2cccc(Cl)c2F)c[nH]1` [II-115], the Ki on ERK2 was less than 1 µM. Further, the IC50 at Aurora2 is less than 5 µM.

In the case of `CCN(C)C(=O)c1cc(-c2[nH]ncc2-c2ccc(F)c(Cl)c2)c[nH]1` [II-108], on ERK2, the Ki is less than 1 µM. Besides, the IC50 on Aurora2 lay within 5 to 10 µM.

For `O=C(NCC1CCCO1)c1cc(-c2[nH]ncc2-c2cccc(Cl)c2F)c[nH]1` (stereo not drawn) [II-106], the Ki on ERK2 is less than 1 µM. Moreover, at Aurora2, the IC50 was 5 to 10 µM.

With `O=C(NOCc1ccccc1)c1cc(-c2[nH]ncc2-c2cccc(F)c2F)c[nH]1` [II-103], the Ki at ERK2 is less than 1 µM. Moreover, the IC50 at Aurora2 is 5 to 10 µM.

Turning to `NS(=O)(=O)c1ccc(CNC(=O)c2cc(-c3[nH]ncc3-c3cccc(Br)c3)c[nH]2)cc1` [II-94], in the assay on AKT, the “inhibit AKT” value is on record as “inhibit AKT”. In addition, at ERK2, the Ki is less than 1 µM.

For the compound `CCN(C)C(=O)c1cc(-c2[nH]ncc2-c2cc(Cl)cc(Cl)c2)c[nH]1` [II-66], the Ki on ERK2 is less than 1 µM. The IC50 at Aurora2 was 5 to 10 µM.

Turning to `O=C(NCc1ccc2c(c1)CCO2)c1cc(-c2[nH]ncc2-c2cccc(Br)c2)c[nH]1` [II-43], at ERK2, the Ki is less than 1 µM. The compound also showed an IC50 in assay [1] of less than 10 µM. Further, the inhibition at 2 µM at KDR was greater than 40%.

Take `O=C(NCc1cccnc1)c1cc(-c2[nH]ncc2-c2ccc(F)c(Cl)c2)c[nH]1` [II-101]: the inhibition constant (Ki) at ERK2 was less than 1 µM. Also, on Aurora2, the IC50 is less than 5 µM.

As for `O=C(NCc1ccncc1)c1cc(-c2[nH]ncc2-c2cc(F)ccc2F)c[nH]1` [II-98], the Ki on ERK2 was less than 1 µM. Besides, on Aurora2, the IC50 was in the range of 5 to 10 µM.

For `O=C(NOCc1ccccc1)c1cc(-c2[nH]ncc2-c2ccc(Cl)c(Cl)c2)c[nH]1` [II-54], the Ki at ERK2 is less than 1 µM. At Aurora2, the IC50 was in the range of 5 to 10 µM.

For `O=C(NOCc1ccccc1)c1cc(-c2[nH]ncc2-c2cc(F)ccc2F)c[nH]1` [II-113], the Ki on ERK2 was less than 1 µM. In addition, the IC50 at Aurora2 is less than 5 µM.

`O=C(c1cc(-c2n[nH]cc2-c2cc(Cl)cc(Cl)c2)c[nH]1)N1CCOCC1` [II-112]: at ERK2, the Ki was less than 1 µM. Besides, the IC50 on Aurora2 is less than 5 µM.

With `O=C(NOCc1ccccc1)c1cc(-c2[nH]ncc2-c2cccc(F)c2)c[nH]1` [II-89], the “inhibit AKT” value in the assay on AKT is given as “inhibit AKT”. In addition, the Ki on ERK2 is less than 1 µM. On Aurora2, the IC50 is less than 5 µM.

Take `CCN(C)C(=O)c1cc(-c2[nH]ncc2-c2ccc(Cl)c(Cl)c2)c[nH]1` [II-64]: at ERK2, the Ki is less than 1 µM. For the same compound, the IC50 at Aurora2 is less than 5 µM.

Source of the values: US6593357B1, “Pyrazole compositions useful as inhibitors of ERK” (Vertex Pharmaceuticals Incorporated, priority 2000, dated 2003).
